Results published in patent publication US20150051192A1, “BLOCKING OF CUE-INDUCED DRUG REINSTATEMENT” (ALBANY MEDICAL COLLEGE, priority 2012, published 2015).
Entries after “also recorded” stand apart in the source; their conditions may differ. Read-outs that look alike come from different tables or passages of the source.

Columns and labels:
[1] = in vivo, cited from earlier work
[2] = test system: female Sprague-Dawley rats; test: Musical cue-induced reinstatement of cocaine seeking (Experiment 3); type: in vivo, rat; settings: 18-MC 40 mg/kg i.p. 20 minutes prior to reinstatement test session, vs saline
Source text: Naïve female Sprague-Dawley rats (Taconic Germantown, N.Y.), weighing approximately 250 g at the start of the experiments, were housed individually in a temperature and humidity controlled colony room under a standard 12:12 light/dark cycle. Food and water were provided ad libitum. Protocols were designed and implemented in accordance with the “Guide for the Care and Use of Laboratory Animals” (1996) and were approved by the Institutional Animal Care and Use Committee of Albany Medical College. Rats were given one week of acclimation prior to experimental procedures.
Cocaine hydrochloride (˜0.4 mg/kg/infusion, Sigma-Aldrich, St. Louis, Mo.) was dissolved in 0.9% sodium chloride with a 2 mg/ml drug to saline ratio, and then brought to a neutral physiological pH before use in intravenous (i.v.) self-administration sessions. 18-MC (40 mg/kg, Obiter Research LLC. Champaign, Ill.) and saline were both administered intraperitoneally (i.p.). Animals were anesthetized with sodium pentobarbital (50 mg/kg, i.p.) for both intrajugular and microdialysis cannulation surgeries. Sodium methohexital (10 mg/kg) was used to verify catheter patency. All other reagents used in conjunction with microdialysis experiments were obtained from local suppliers and were of analytical grade.
Miles Davis' “Four” (Prestige Blue Haze, 1954) was the musical track used as a contextual cue in these experiments. The Miles Davis selection was chosen because it had been used successfully in past conditioning paradigms in our laboratory (Polston et al, 2011b). This musical selection was originally chosen because it has a repetitive beat and melody, helping to make it easily recognizable and identifiable. During drug training, self-administration, and applicable test sessions, “Four” was played on a continuous loop, at a volume staying between 65 and 75 decibels. This decibel range was chosen because it had been used successfully in past investigations involving rats and music (Feduccia et al, 2008; Otsuka et al, 2009; Polston et al, 2011b).
Experiments were conducted in rat operant conditioning chambers (ENV-009, Med Associates, St. Albans, Vt.) located within sound attenuated boxes outfitted with acoustical foam. The operant boxes were continuously ventilated with a house fan, and equipped with two retractable levers spaced approximately 20 cm apart on the front wall, with a house light mounted on the back wall of the test chamber. […] By operationally defining the floor (30.5 cm×31.8 cm) of the test chamber, and dividing it into three spatial zones, the program automatically generated detailed readings of the time spent in each zone in seconds and the distance that the animal traveled in meters. […] Videos were also periodically recorded and analyzed to ensure that Anymaze was functioning correctly. […]

rats [3] = settings: cited from earlier work
study animals [4] = settings: cited from earlier work
rats [5] = settings: compared to saline treated rats; cited from earlier work
study animals [6] = settings: cited from earlier work; remark: listed apart in the source

For `COCC[C@H]1CC2CN3CCc4c([nH]c5ccccc45)[C@](C(=O)OC)(C2)[C@H]13` [18-MC, 18-Methoxycoronaridine], the “acquisition of a cocaine conditioned place preference” value [1] is listed as “able to block the acquisition”, the “acquisition of a cocaine conditioned place preference” value ([1]; listed as 18MC) is listed as “block acquisition” and the “time spent in the inactive or back zones, reinstatement test session” value ([2]; inactive p=0.488, back p=0.082) is listed as “no effect of Treatment”. For the same molecule, the “active lever responses on the reinstatement test day” value ([2]; musical cue, p<0.001) was “significantly fewer active lever responses; also recorded: significantly attenuated responses”, the “time spent in the active zone, reinstatement test session” value ([2]; p<0.01) was “significant decrease; also recorded: significantly decreased” and the “locomotor activity on the reinstatement test day” value ([2]; p=0.143) was “no significant differences between groups; also recorded: produced no changes in locomotor activity”. For the same molecule, the “nicotine, cocaine, morphine, methamphetamine, and ethanol self-administration” value (rats [3]) was “reduce”, the “effect on drug self-administration” value (study animals [4]; 10 μg administered into the interpeduncular nucleus) was “effective” and the “effect on drug self-administration” value (study animals [4]; 10 μg administered into the ventral tegmental area) was “no effect”. The “morphine, methamphetamine, and nicotine self-administration” value (study animals [4]; locally administered into the medial habenula) was “decreased”, the locomotor effects alone (rats [5]) was “produces no locomotor effects alone” and the “sensitized dopamine responses in the nucleus accumbens” value (study animals [6]; local administration into both the medial habenula and the interpeduncular nucleus) was “produced similar results”. The “sensitized dopamine responses to both morphine and cocaine in the nucleus accumbens” value (study animals [6]; systemic 18-MC 40 mg/kg pretreatment 19 hours beforehand, chronic dosing models) was “abolished”.
